From patent US20060069132A1, “Azolecarboxamide herbicides” (priority 2004, published 2006)

Tests used:
[1] = tested on: cocklebur; assay: Test B pre-/postemergence herbicide test; type: in vivo, Xanthium strumarium; settings: for Cocklebur plant response rating: postemergence, scale 0 (no effect) to 100 (complete control)
Method in brief: (§1)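 Pre: seeds sown, then sprayed. Post: 1–4-leaf plants (2–18 cm) sprayed at the same time. Paddy: flooded, treated at 2-leaf stage. Formulation: non-phytotoxic solvent with surfactant. Greenhouse 13–15 days; visual 0–100 score relative to controls.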

[2] = tested on: morningglory; assay: Test B pre-/postemergence herbicide test; type: in vivo, Ipomoea coccinea; settings: for Morningglory plant response rating: postemergence, scale 0 (no effect) to 100 (complete control)
Method in brief: as §1

[3] = tested on: pigweed; assay: Test B pre-/postemergence herbicide test; type: in vivo, Amaranthus retroflexus; settings: for Pigweed plant response rating: postemergence, scale 0 (no effect) to 100 (complete control)
Method in brief: (§2)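 Greenhouse pot assay with simultaneous preemergence (treated seed) and postemergence (2–18 cm seedlings) applications of surfactant-containing, non-phytotoxic solvent formulations. Response scored visually 13–15 days later on a 0–100 scale, 100 meaning complete control.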

[4] = tested on: small flower umbrella sedge; assay: Test B flooded paddy test; type: in vivo, Cyperus difformis; settings: 1000 g ai/ha, visual rating, scale 0 to 100 (0 no effect, 100 complete control), 13 to 15 days
Method in brief: (§3)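 Read-out: visual comparison with controls, scored 0 to 100, where 100 means complete control and 0 no effect. Formulated chemicals were applied postemergence to plants 2–18 cm tall (1- to 4-leaf), or to flooded-paddy plants at the 2-leaf stage, then held 13 to 15 days under glass.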

[5] = tested on: wild oat; assay: Test B postemergence herbicide test; type: in vivo, Avena fatua; settings: postemergence, visual rating, scale 0 (no effect) to 100 (complete control)
Method in brief: (§4)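 Each value is a visual 0–100 response rating taken against controls 13 to 15 days after treatment in the greenhouse. Plants received formulated chemical postemergence at the 1- to 4-leaf stage or, in flooded paddy, at the 2-leaf stage.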

[6] = tested on: rice; assay: Test C flooded paddy test; type: in vivo, Oryza sativa
Method in brief: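 Injury scored visually against controls on a 0 (no effect) to 100 (complete control) scale, 12 to 14 days after treatment in greenhouse. Flooded paddy plants treated at 2-leaf stage; postemergence plants at 1- to 4-leaf stage, 2 to 18 cm tall.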

[7] = tested on: velvetleaf; assay: Test B pre-/postemergence herbicide test; type: in vivo, Abutilon theophrasti; settings: for Velvetleaf plant response rating: postemergence, scale 0 (no effect) to 100 (complete control)
Method in brief: as §2

[8] = tested on: ducksalad; assay: Test B flooded paddy test; type: in vivo, Heteranthera limosa; settings: 1000 g ai/ha, visual rating, scale 0 to 100 (0 no effect, 100 complete control), 13 to 15 days
Method in brief: as §3

[9] = tested on: ducksalad; assay: Test C flooded paddy test; type: in vivo, Heteranthera limosa
[10] = tested on: corn; assay: Test B pre-/postemergence herbicide test; type: in vivo, Zea mays; settings: for Corn plant response rating: postemergence, scale 0 (no effect) to 100 (complete control)
Method in brief: as §2

[11] = tested on: Surinam grass; assay: Test B pre-/postemergence herbicide test; type: in vivo, Urochloa decumbens; settings: for Surinam Grass plant response rating: postemergence, scale 0 (no effect) to 100 (complete control)
Method in brief: as §2

[12] = tested on: large crabgrass; assay: Test B pre-/postemergence herbicide test; type: in vivo, Digitaria sanguinalis; settings: for Crabgrass, Large plant response rating: postemergence, scale 0 (no effect) to 100 (complete control)
Method in brief: as §2

[13] = tested on: giant foxtail; assay: Test B pre-/postemergence herbicide test; type: in vivo, Setaria faberi; settings: for Foxtail, Giant plant response rating: postemergence, scale 0 (no effect) to 100 (complete control)
Method in brief: as §2

[14] = tested on: barnyardgrass; assay: Test B flooded paddy test; type: in vivo, Echinochloa crus-galli; settings: 1000 g ai/ha, visual rating, scale 0 to 100 (0 no effect, 100 complete control), 13 to 15 days
Method in brief: as §3

[15] = tested on: lambsquarters; assay: Test B pre-/postemergence herbicide test; type: in vivo, Chenopodium album; settings: for Lambsquarters plant response rating: postemergence, scale 0 (no effect) to 100 (complete control)
Method in brief: as §2

[16] = tested on: blackgrass; assay: Test B postemergence herbicide test; type: in vivo, Alopecurus myosuroides; settings: postemergence, visual rating, scale 0 (no effect) to 100 (complete control)
Method in brief: as §3

[17] = tested on: wheat; assay: Test B postemergence herbicide test; type: in vivo, Triticum aestivum; parameters: key to Wheat plant response rating: 0 = no effect, 100 = complete control; settings: postemergence, visual rating, scale 0 (no effect) to 100 (complete control)
Method in brief: as §4

[18] = tested on: smallflower umbrella sedge; assay: Test C flooded paddy test; type: in vivo, Cyperus difformis
[19] = tested on: rice; assay: Test B flooded paddy test; type: in vivo, Oryza sativa; settings: 1000 g ai/ha, visual rating, scale 0 to 100 (0 no effect, 100 complete control), 13 to 15 days
Method in brief: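 Greenhouse test; postemergence application to plants at 1–4 leaves (2–18 cm); paddy species at 2 leaves; evaluated visually vs controls at 13–15 days; scale 0–100 (100 = complete control).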

[20] = tested on: barnyardgrass; assay: Test C flooded paddy test; type: in vivo, Echinochloa crus-galli
Method in brief: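 Ratings (0 = no effect, 100 = complete control) come from visual comparison with untreated plants after 12 to 14 days in the greenhouse. Treatment was postemergence at the 1- to 4-leaf stage (2–18 cm), or at the 2-leaf stage for the flooded paddy barnyardgrass.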

[21] = tested on: rice; assay: Test B pre-/postemergence herbicide test; type: in vivo, Oryza sativa; settings: 0 = no effect, 100 = complete control, preemergence
Method in brief: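 Species tested were Echinochloa crus-galli, Ipomoea coccinea, Xanthium strumarium and Oryza sativa, treated both before emergence and at the 1- to 4-leaf stage; rice and barnyardgrass were also tested under flooding at 2 leaves. Greenhouse incubation lasted 13–15 days before visual 0–100 scoring.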

[22] = tested on: barnyardgrass; assay: Test B pre-/postemergence herbicide test; type: in vivo, Echinochloa crus-galli; settings: for Barnyardgrass plant response rating: postemergence, scale 0 (no effect) to 100 (complete control)
Method in brief: as §1

[23] = 125 g ai/ha, 0 = no effect, 100 = complete control, preemergence
[24] = 500 g ai/ha, visual rating, 0 = no effect, 100 = complete control, preemergence
[25] = 62 g ai/ha, scale 0 to 100 (0 no effect, 100 complete control)
[26] = 125 g ai/ha, scale 0 to 100 (0 no effect, 100 complete control)
[27] = 250 g ai/ha, scale of 0 to 100, 0 is no effect, 100 is complete control
[28] = 500 g ai/ha, visual rating after 12 to 14 days, scale 0 to 100 (0 no effect, 100 complete control)

With `CCc1nc(C(C)(C)C)sc1C(=O)Nc1cccc(C(=O)N(C)C)c1` [Compound 228] the “Cocklebur plant response rating (0 to 100 scale)” value [1, 23] was 30, the “Plant response rating, Cocklebur” value [1, 24] was 80 and the “Cocklebur plant response rating” value ([1]; 125 g ai/ha, visual rating) was 30. The “Cocklebur plant response rating” value ([1]; 500 g ai/ha, visual rating) was 80, the “Morningglory plant response rating (0 to 100 scale)” value [2, 23] was 10 and the “Plant response rating, Morningglory” value [2, 24] was 40. For the same compound, the “Morningglory plant response rating” value ([2]; 125 g ai/ha, visual rating) was 70, the “Morningglory plant response rating” value ([2]; 500 g ai/ha, visual rating) was 80 and the “Pigweed plant response rating (0 to 100 scale)” value [3, 23] was 90. The “Plant response rating, Pigweed” value [3, 24] was 100, the “Pigweed plant response rating” value ([3]; 125 g ai/ha, visual rating) was 50 and the “Pigweed plant response rating” value ([3]; 500 g ai/ha, visual rating) was 80. For the same compound, the “Sedge, Umbrella plant response rating” value [4] was 80, the “Oat, Wild plant response rating” value ([5]; 125 g ai/ha) was 40 and the “Oat, Wild plant response rating” value ([5]; 500 g ai/ha) was 50. For the same compound, the “Rice plant response rating” value [6, 25] was 75, the “Rice plant response rating” value [6, 26] was 80 and the “Rice plant response rating” value [6, 27] was 80. The “Plant response rating, Rice” value [6, 28] was 85, the “Velvetleaf plant response rating (0 to 100 scale)” value [7, 23] was 100 and the “Plant response rating, Velvetleaf” value [7, 24] was 100. For the same compound, the “Velvetleaf plant response rating” value ([7]; 125 g ai/ha, visual rating) was 60, the “Velvetleaf plant response rating” value ([7]; 500 g ai/ha, visual rating) was 80 and the “Ducksalad plant response rating” value [8] was 90. The “Ducksalad plant response rating” value [9, 25] was 80, the “Ducksalad plant response rating” value [9, 26] was 85 and the “Ducksalad plant response rating” value [9, 27] was 90. For the same compound, the “Plant response rating, Ducksalad” value [9, 28] was 90, the “Corn plant response rating (0 to 100 scale)” value [10, 23] was 60 and the “Plant response rating, Corn” value [10, 24] was 80. The “Corn plant response rating” value ([10]; 125 g ai/ha, visual rating) was 10, the “Corn plant response rating” value ([10]; 500 g ai/ha, visual rating) was 30 and the “Surinam Grass plant response rating (0 to 100 scale)” value [11, 23] was 60. The “Plant response rating, Surinam Grass” value [11, 24] was 100, the “Surinam Grass plant response rating” value ([11]; 125 g ai/ha, visual rating) was 20 and the “Surinam Grass plant response rating” value ([11]; 500 g ai/ha, visual rating) was 40. The “Crabgrass, Large plant response rating (0 to 100 scale)” value [12, 23] was 60, the “Plant response rating, Crabgrass, Large” value [12, 24] was 100 and the “Crabgrass, Large plant response rating” value ([12]; 125 g ai/ha, visual rating) was 20. For the same compound, the “Crabgrass, Large plant response rating” value ([12]; 500 g ai/ha, visual rating) was 40, the “Foxtail, Giant plant response rating (0 to 100 scale)” value [13, 23] was 70 and the “Plant response rating, Foxtail, Giant” value [13, 24] was 100. For the same compound, the “Foxtail, Giant plant response rating” value ([13]; 125 g ai/ha, visual rating) was 30, the “Foxtail, Giant plant response rating” value ([13]; 500 g ai/ha, visual rating) was 50 and the “Barnyardgrass plant response rating” value [14] was 90. The “Lambsquarters plant response rating (0 to 100 scale)” value [15, 23] was 100, the “Plant response rating, Lambsquarters” value [15, 24] was 100 and the “Lambsquarters plant response rating” value ([15]; 125 g ai/ha, visual rating) was 70. The “Lambsquarters plant response rating” value ([15]; 500 g ai/ha, visual rating) was 80, the “Blackgrass plant response rating” value ([16]; 125 g ai/ha) was 30 and the “Blackgrass plant response rating” value ([16]; 500 g ai/ha) was 40. For the same compound, the “Wheat plant response rating” value ([17]; 125 g ai/ha) was 30, the “Wheat plant response rating” value ([17]; 500 g ai/ha) was 40 and the “Sedge, Umbrella plant response rating” value [18, 25] was 80. For the same compound, the “Sedge, Umbrella plant response rating” value [18, 26] was 80, the “Sedge, Umbrella plant response rating” value [18, 27] was 80 and the “Plant response rating, Sedge, Umbrella” value [18, 28] was 85. For the same compound, the “Rice plant response rating” value [19] was 90, the “Barnyardgrass plant response rating” value [20, 25] was 80 and the “Barnyardgrass plant response rating” value [20, 26] was 85. For the same compound, the “Barnyardgrass plant response rating” value [20, 27] was 95, the “Plant response rating, Barnyardgrass” value [20, 28] was 95 and the “Rice plant response rating (0 to 100 scale)” value ([21]; 125 g ai/ha) was 80. For the same compound, the “Plant response rating, Rice” value ([21]; 500 g ai/ha, visual rating) was 90, the “Barnyardgrass plant response rating (0 to 100 scale)” value [22, 23] was 80 and the “Plant response rating, Barnyardgrass” value [22, 24] was 100. For the same compound, the “Barnyardgrass plant response rating” value ([22]; 125 g ai/ha, visual rating) was 30 and the “Barnyardgrass plant response rating” value ([22]; 500 g ai/ha, visual rating) was 70.
